Reference: patent US20160374979A1, “Method of Treatment of Alopecia with Monoterpenoids” (CELLMID LIMITED, priority 2013, published 2016)

Test system: FGF-5-dependent cell proliferation (FR-BaF3 cells expressing FGFR-1c)
Assay: FR-Ba/F3 cell proliferation/viability assay in the presence of FGF-5 (CCK-8)
Assay type: cell-based, murine
Procedure: Ba/F3 is a murine interleukin-3 (IL-3)-dependent pro-B cell line. […] That is, compounds were tested for their ability to modulate proliferation of FR-Ba/F3 cells in the presence of recombinant human FGF-5 (rhFGF-5) prepared according to Maeda et al., Nishi Nihon Hifuka, 69(1): 81-86, 2007.
Briefly, a suitable plasmid expressing FGFR-1c was introduced into […] ER-Ba/F3 cells, and the cells were maintained in RPMI RPMI-1640 with 10% FBS and 1.3×10^−17 M of murine IL-3 (Sigma, St Louis, […].) containing antibiotic G418 sulfate (Promega, Medison, Wis.). The inventors compared proliferation of FR/BaF3 cells in culture medium containing IL3 or FGF-5 and a different concentration in the range from 0.005% (w/v) to 1.0% (w/v) of each test compound listed in Example 1. The FR-BaF3 cells were seeded at 5×10^4/mL cells per well in 96-well, micro-culture plates (Falcon) in RPMI-1640 culture medium containing 10% fetal bovine serum, 5 μg/mL heparin. Recombinant human FGF-5 (rhFGF-5; 1 μg/mL) was added to one group, and IL-3 (0.2 ng/mL) (Sigma) was added to another group. The test compounds were then introduced to the micro-culture plate wells. Total volume of media per well was 100 μl. Control groups lacking test compound were also prepared for each of the IL-3-supplemented and FGF-5-supplemented samples. The plates were then incubated at 37° C. in 5% CO2 for 3 days.
After 3 days, colorimetric assays were performed using a Cell Counting Kit-8 (CCK-8) (Wako) according to the manufacturer's instructions to measure cell proliferation or suppression thereof by the test compound at varying concentrations. Briefly, 10 μl (1:2 dilution) of the CCK-8 reagent was added to each micro-culture plate well after which time the plates were incubated at […] for 3 hours. Absorbance at 450 nm was then measured using a microplate reader. Cell viability and proliferation for the IL-3-supplemented and FGF-5-supplemented groups was calculated as a measure of the optical density (OD) of cells treated with a test compound relative to the OD of the respective untreated controls, excluding the OD of blank controls (media only). Dose response curves were plotted and the respective inhibitory concentrations (IC50) for the test compounds were determined.

SMILES: CC1=CC(=O)C(C(C)C)CC1 (centres unmarked) [Piperitone, 3-Methyl-6-(propan-2-yl)cyclohex-2-en-1-one]
- FGF-5-inhibitory activity (in words) (judged from FR-BaF3 result): potent FGF-5-inhibitory active substances
- FGF-5 Specificity IL-1/FGF-5 (ratio of the IC50 with IL-3 to the IC50 with FGF-5, BR: less reproducible): 25
